Data set [1] deals with endogenous PTH 1-84. The note with it: healthy volunteers, no further suppression at higher doses, cited from earlier work.
Data set [2] concerns individuals with hypoparathyroidism. Type of data set: in vivo, human. Particulars: for Active Vitamin D dose / Calcium supplement dose / Serum Calcium: mean of Compound 1 group. From the text: PaTHway is a phase 3, multicenter (North America and Europe), randomized, double-blind, placebo-controlled, parallel-group, 26-week trial with an open-label extension of 156 weeks that evaluated the efficacy, safety, and tolerability of once-daily Compound 1 as PTH replacement therapy in individuals with hypoparathyroidism. All participants who completed the 26- week blinded treatment period were allowed to enroll in the 156-week open-label extension period. (ClinicalTrials.gov identifier: NCT04701203; EudraCT No.: 2020-003380-26).
Once enrolled, participants were randomized 3:1 into 2 treatment groups: Compound 1 18 μg PTH(1-34)/day or placebo (excipient solution) mimicking 18 μg/day, both co-administered with conventional therapy (active vitamin D and elemental calcium).
Randomization was stratified by etiology of hypoparathyroidism (postsurgical vs. non-surgical). In addition to frequent laboratory visits to measure serum calcium levels, the blinded treatment period included 10 clinic visits over 26 weeks. Once-daily treatment with Compound 1 or placebo was delivered by a modified Ypsomed UnoPen Fix pen injector using 31-gauge, 5 mm pen needles to deliver doses of 6-30 μg/injection in a volume of ≤100 μL to either abdomen or anterior thigh, rotating injection sites.
All participants were initially prescribed Compound 1 18 μg PTH(1-34)/day or a corresponding volume of placebo and were individually and progressively titrated to an optimal dose (allowable range 6-60 μg/day) in increments of 3 μg/day. Titration of study drug and conventional therapy was performed according to a protocol-specified algorithm guided by serum calcium values (Example 2). The algorithm was intended to facilitate independence from conventional therapy by discontinuation of active vitamin D and calcium in response to reestablishment of physiological PTH signaling with Compound 1 treatment. In the setting of normocalcemia, the protocol directs incremental increases in study drug (Compound 1 or placebo) accompanied by stepwise reductions of active vitamin D by 33-50% of the starting dose, followed by reductions of calcium in at least 1500 mg/day increments once vitamin D has been discontinued.
Participants were permitted to take elemental calcium <600 mg/day as a nutritional supplement if required to meet the generally recommended dietary intakes of calcium.
Treatment with Compound 1 was carried out in accordance with Example 1.

Like-named read-outs stand apart in the source and are kept apart here. Where only a bound is given, the exact number is not on record here.

With “Compound 5: polypeptide having the sequence AVAEIQLMHQRAKWIQDARR RAFLHKLIAEIHTAEI, SEQ ID NO:122 (AVAEIQLMHQRAKWIQDARRRAFLHKLIAEIHTAEI; Artificial random coil) [reference compound]”, the “dose able to suppress endogenous PTH 1-84” value in data set [1] (daily dosing) was 60 µg.
In the case of palopegteriparatide [Compound 1], the “dose that fully suppresses endogenous PTH 1-84” value in data set [1] was 16 µg/day. In addition, the “time to complete discontinuation of active vitamin D” value in data set [2] (Compound 1 group) was not above 8 weeks. In data set [2] (in vivo), the “SAEs considered related to treatment” value is “one”. Further, the “participants reporting SAEs” value in data set [2] (in vivo) was 8.2%. The “Active Vitamin D dose” value in data set [2] (week 0) is 0.992 µg; in data set [2] (week 2) it was 0.098 µg; in data set [2] (week 4), 0.008 µg; in data set [2] (week 6), 0.004 µg; in data set [2] (week 8), 0 µg; in data set [2] (week 10) it was 0 µg. In addition, the “Active Vitamin D dose” value in data set [2] (week 12), in data set [2] (week 16), in data set [2] (week 20) and in data set [2] (week 26) was 0 µg in each case. The Calcium supplement dose in data set [2] (week 0) was determined as 1748.03 mg; in data set [2] (week 2) it was 1524.1 mg; in data set [2] (week 4), 548.77 mg; in data set [2] (week 6) it was 229.1 mg; in data set [2] (week 8), 105.74 mg; in data set [2] (week 10), 114.17 mg. Further, the Calcium supplement dose in data set [2] (week 12) came out at 102.46 mg; in data set [2] (week 16), 182.38 mg; in data set [2] (week 20) it was 300.83 mg; in data set [2] (week 26) it was 274.17 mg. For the same substance, the “Serum Calcium” value in data set [2] (week 0) is recorded as 8.8 mg/dL; in data set [2] (week 2), 9.8 mg/dL; in data set [2] (week 4), 9.6 mg/dL; in data set [2] (week 6) it was 9.7 mg/dL; in data set [2] (week 8), 9.5 mg/dL; in data set [2] (week 10), 9.5 mg/dL. Further, the “Serum Calcium” value in data set [2] (week 12) turned out to be 9.5 mg/dL; in data set [2] (week 16), 9.3 mg/dL; in data set [2] (week 20), 9.3 mg/dL; in data set [2] (week 26) it was 8.9 mg/dL. In addition, the “mean serum calcium (sCa) levels” value in data set [2] (when adequately titrated, all study visits) is reported as “in the normal range”.

(Values after patent US20260115298A1, “PTH Treatment Regimen Comprising Two PTH Compounds” (priority 2022, published 2026).)
